According to patent US10413529B2, “Methods of inhibiting cataracts and presbyopia” (UNIVERSITY OF MASSACHUSETTS, priority 2013, dated 2019):
Where two headings read alike, the source gives them in different places.

Assays:
human cadaver lenses = system: human cadaver lenses; design: key to LOCS III grade, Cortical / LOCS III grade, NO / LOCS III grade, PS / LOCS III grade, NC: LOCS III cataract grade on a decimal scale (higher = more severe)
Procedure: Within about 24 hours of death, the eyeball is harvested, sliced and the vitreous is removed. The lens is excised and placed in an incubation medium called Optisol®. Optisol® is a corneal storage medium containing chondroitin sulfate, dextran 40, optisol base powder, sodium bicarbonate, gentamycin, amino acids, sodium pyruvate, L-glutamine, 2-mercaptoethanol and purified water. OD is the right eye and OS is the left eye.
Lens opacities are classified according to the LOCS III system. LOCS III measurements are taken with a slit lamp microscope. The LOCS III contains an expanded set of standards selected from the Longitudinal Study of Cataract slide library at the Center for Clinical Cataract Research, Boston, Mass. It includes six slit lamp images for grading nuclear color (NC) and nuclear opalescence (NO), five retroillumination images for grading cortical cataract (C), and five retroillumination images for grading posterior subcapsular (P) cataract. Cataract severity is graded on a decimal scale, with the standards have regularly spaced intervals on the scale.
In all cases, the control is Optisol® medium. The remaining data points are for isolated human cadaver lenses treated with CAPEG4 solutions with Optisol®.

γ-crystallin = assay: DLS, aggregation of γ-crystallin (stated for γD and γS together); type: biochemical; conditions: dilute solution, 22° and 37° C.
Procedure: Scattering intensity was measured at angles between 30° and 90° at 5° intervals, corresponding to a scattering wave vector (q) range between 8.41×10^6 and 2.30×10^7 m^−1. The scattering wave vector is defined as q=4πn sin (θ/2)/λ, where θ is the scattering angle, and λ=514.5, the wavelength of the argon laser in vacuum, and n is 1.33, the refractive index of water. The temperature of the sample was held at constant temperature of 4 to 37±0.1° C. by a circulating water bath.
The correlation function was analyzed using CONTIN analysis to calculate lag times for the correlation functions at measured angles. The peaks represent the diffusive mode of the proteins. The delay times (τ) were converted to Γ and graphed versus q^2. The slope of the fitted line is the diffusion coefficient (D). The lines are fitted such that the intercept is zero because a non-zero value of q=0 is unphysical. The Γ versus q^2 plots were linear with r^2 values of 0.95 or greater.
All solutions were filtered with 0.22 μm hydrophobic PVDF membranes (Fisher Scientific) into 10 mm diameter borosilicate glass tubes and sealed. Solutions were allowed to equilibrate for thirty minutes prior to measuring light scattering.
γ-crystallins were subjected to a variety of experimental conditions, including a range of pHs (5, 6, 7, 8, 9, 10, 11), concentrations of KCl (100 mM, 150 mM, 300 mM, 500 mM, 1000 mM) and temperature (4.5° C., 22° C., 37° C.). The pH and salt concentration were adjusted via overnight dialysis at 4° C. and their final concentration adjusted to 1.0 g/L.
It had been hypothesized that disulfide bonds might mediate the observed γ-crystallin aggregates. The DLS of the γ-crystallin proteins was also measured in 5 mM DTT, and in the presence of 1.0 g/L α-crystallin. […] Thus, this hypothesis was incorrect.
Further, the synthesized α-crystallin proteins were mixed with γ-crystallin proteins to determine if the chaperoning ability of α-crystallin disrupts the γ-crystallin aggregates. The α-A and α-B crystallins were each individually mixed with γD- or γS-crystallin in a molar ratio of 3:1, respectively, mimicking the ratio found in the human eye lens. All solutions were allowed to equilibrate for an hour at 4° C.

[1] = 10 mg/mL CAPEG4 (OD), 0 HR, Table 7
[2] = 10 mg/mL CAPEG4, 24 HR, Table 7
[3] = 10 mg/mL CAPEG4, 72 HR, Table 7
[4] = 50 mg/mL CAPEG4 (OD), 0 HR, Table 8
[5] = 50 mg/mL CAPEG4, 24 HR, Table 8
[6] = 50 mg/mL CAPEG4, 72 HR, Table 8
[7] = 100 mg/mL CAPEG4 (OD), 0 HR, Table 9
[8] = 100 mg/mL CAPEG4 (OD), 0 HR, Table 10 (repeat, different eyes)
[9] = 100 mg/mL CAPEG4, 24 HR, Table 9
[10] = 100 mg/mL CAPEG4, 24 HR, Table 10 (repeat, different eyes)
[11] = 100 mg/mL CAPEG4, 72 HR, Table 9
[12] = 100 mg/mL CAPEG4, 72 HR, Table 10 (repeat, different eyes)
[13] = 200 mg/mL CAPEG4 (OD), 0 HR, Table 11
[14] = 200 mg/mL CAPEG4 (OD), 0 HR, Table 12 (second pair of lenses)
[15] = 200 mg/mL CAPEG4, 24 HR, Table 11
[16] = 200 mg/mL CAPEG4, 24 HR, Table 12 (second pair of lenses)
[17] = 200 mg/mL CAPEG4, 72 HR, Table 11
[18] = 200 mg/mL CAPEG4, 72 HR, Table 12 (second pair of lenses)

## NCCOCCOCCOCCOCCC(=O)O [CAPEG4]
Human cadaver lenses
  observation on lens capsule and lens volume: wrinkling of the lens capsule was observed and subjectively exhibited some loss of lens volume
Human cadaver lenses; 10 mg/mL CAPEG4
  change of LOCS III grades versus control: no significant change in the experimental versus control samples
Human cadaver lenses; [1]
  LOCS III grade, Cortical: 1.0
  LOCS III grade, NC: 5.0
  LOCS III grade, NO: 5.0
  LOCS III grade, PS: 0.9
Human cadaver lenses; [2]
  LOCS III grade, Cortical: 1.0
  LOCS III grade, NC: 5.0
  LOCS III grade, NO: 5.0
  LOCS III grade, PS: 0.9
Human cadaver lenses; [3]
  LOCS III grade, Cortical: 0.9
  LOCS III grade, NC: 5.0
  LOCS III grade, NO: 5.0
  LOCS III grade, PS: 0.9
Human cadaver lenses; [4]
  LOCS III grade, Cortical: 1.0
  LOCS III grade, NC: 1.7
  LOCS III grade, NO: 2.0
  LOCS III grade, PS: 1.1
Human cadaver lenses; [5]
  LOCS III grade, Cortical: 1.0
  LOCS III grade, NC: 1.7
  LOCS III grade, NO: 2.0
  LOCS III grade, PS: 0.9
Human cadaver lenses; [6]
  LOCS III grade, Cortical: 1.0
  LOCS III grade, NC: 1.9
  LOCS III grade, NO: 2.0
  LOCS III grade, PS: 0.9
Human cadaver lenses; 50 mg/mL CAPEG4, up to 72 hours
  difference of cortical cataracts and NO versus controls: no significant differences between the controls and 50 mg/mL incubation
Human cadaver lenses; [7]
  LOCS III grade, Cortical: 3.0
  LOCS III grade, NC: 1.3
  LOCS III grade, NO: 1.8
  LOCS III grade, PS: 0.9
Human cadaver lenses; [8]
  LOCS III grade, Cortical: 3.0
  LOCS III grade, NC: 3.0
  LOCS III grade, NO: 3.0
  LOCS III grade, PS: 1.8
Human cadaver lenses; [9]
  LOCS III grade, Cortical: 2.9
  LOCS III grade, NC: 1.1
  LOCS III grade, NO: 1.2
  LOCS III grade, PS: 0.9
Human cadaver lenses; [10]
  LOCS III grade, Cortical: 2.6
  LOCS III grade, NC: 3.0
  LOCS III grade, NO: 3.0
  LOCS III grade, PS: 1.5
Human cadaver lenses; [11]
  LOCS III grade, Cortical: 2.7
  LOCS III grade, NC: 1.1
  LOCS III grade, NO: 1.2
  LOCS III grade, PS: 0.9
Human cadaver lenses; [12]
  LOCS III grade, Cortical: 2.0
  LOCS III grade, NC: 3.2
  LOCS III grade, NO: 3.0
  LOCS III grade, PS: 1.0
Human cadaver lenses; [13]
  LOCS III grade, Cortical: 2.5
  LOCS III grade, NC: 2.4
  LOCS III grade, NO: 2.4
  LOCS III grade, PS: 0
Human cadaver lenses; [14]
  LOCS III grade, Cortical: 1.3
  LOCS III grade, NC: 2.8
  LOCS III grade, NO: 3.2
  LOCS III grade, PS: 0.9
Human cadaver lenses; [15]
  LOCS III grade, Cortical: 2.2
  LOCS III grade, NC: 2.4
  LOCS III grade, NO: 2.4
  LOCS III grade, PS: 0
Human cadaver lenses; [16]
  LOCS III grade, Cortical: 1.0
  LOCS III grade, NC: 2.8
  LOCS III grade, NO: 3.2
  LOCS III grade, PS: 0.9
Human cadaver lenses; [17]
  LOCS III grade, Cortical: 2.0
  LOCS III grade, NC: 2.4
  LOCS III grade, NO: 2.4
  LOCS III grade, PS: 0
Human cadaver lenses; [18]
  LOCS III grade, Cortical: 0.9
  LOCS III grade, NC: 2.8
  LOCS III grade, NO: 3.2
  LOCS III grade, PS: 0.9
Human cadaver lenses; compared with Optisol lowered to the same pH with citric acid
  cause of reduction in cataracts (agent versus pH of medium): due to the CAPEG4 and not a pH effect of the medium
γ-crystallin
  aggregation of γ-crystallin modified with the agent (DLS): prevented aggregation of proteins
